Broadly, the EC50 is the concentration needed to bring the measured effect to its halfway point.

SMILES strings stand for the structures.

The target in the assay is T1, human LXRβ (Homo sapiens, UniProt P55055).
T1 construct: expressed in transfected cells; host or cells: HEK293 cells (ATCC CRL-1573), transient transfection with pFA-hLXRβ/GAL4 and pUAS
T1 sequence (P55055 222-460 limits assumed): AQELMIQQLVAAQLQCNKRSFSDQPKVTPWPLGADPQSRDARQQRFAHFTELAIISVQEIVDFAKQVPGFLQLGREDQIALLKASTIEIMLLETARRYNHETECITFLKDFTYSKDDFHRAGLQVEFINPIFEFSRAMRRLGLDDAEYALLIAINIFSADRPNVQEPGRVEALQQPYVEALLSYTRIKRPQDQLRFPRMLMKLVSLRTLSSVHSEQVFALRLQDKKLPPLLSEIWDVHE
The assay is described as follows: Assay for Transcriptional Activity of LXRβ (GAL4-hLXRβ LBD luciferase reporter, transient transfection). The class given is cell-based. As to conditions: HEK293 cells transfected with pFA-hLXRβ/GAL4 and pUAS, 24 hours; for Emax: fold value in comparison with the control (DMSO-treated group); for EC50: increase of transcriptional activity of LXRβ, average of three independent tests. In short, it runs like this:
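HEK293 cells transiently co-transfected with GAL4-hLXRβ LBD and 5×GAL4-UAS luciferase reporter, treated 24 h at 37 °C with compounds over 9 points (0.01–50 μM, half-log). Luminescence read after lysis; EC50 from four-parameter fit, mean of three independent tests, with a known LXR agonist as positive control.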
On the technique in general: A reporter such as luciferase makes a cellular process visible.

In the case of `CS(=O)(=O)c1cc(F)c(-c2ccc(C3CC(C(O)(C(F)(F)F)C(F)(F)F)=NN3c3ccc(F)cc3F)cc2)c(F)c1` (stereo not shown) [Example 389, 1-(2,4-difluoro-phenyl)-5-(2′,6′-difluoro-4′-methanesulfonyl-biphenyl-4-yl)-3-[di-(trifluoromethyl)-hydroxy-methyl]-4,5-dihydro-1H-pyrazole], the Emax is on record as 29 fold and the EC50 is 0.503 µM.

`CS(=O)(=O)c1ccc(-c2ccc(C3CC(C(O)(C(F)(F)F)C(F)(F)F)=NN3c3ccc(F)cc3F)cc2)cc1C#N` (stereo not shown) [Example 390, 1-(2,4-difluoro-phenyl)-5-(3′-cyano-4′-methanesulfonyl-biphenyl-4-yl)-3-[di-(trifluoromethyl)-hydroxy-methyl]-4,5-dihydro-1H-pyrazole] had an Emax of 55 fold and an EC50 of 0.318 µM.

Regarding `CS(=O)(=O)c1ccc(-c2ccc(C3CC(C(O)(C(F)(F)F)C(F)(F)F)=NN3c3ccc(F)cc3F)cc2)nc1` (stereo not shown) [Example 391, 1-(2,4-difluoro-phenyl)-5-[4-(5-methanesulfonyl-pyridin-2-yl)-phenyl]-3-[di-(trifluoromethyl)-hydroxy-methyl]-4,5-dihydro-1H-pyrazole], the Emax came out at 26 fold and the EC50 turned out to be 0.173 µM.

In the case of `CS(=O)(=O)c1ccc(-c2ccc(C3CC(C(O)(C(F)(F)F)C(F)(F)F)=NN3c3ccc(F)cc3F)cc2)cc1C(F)(F)F` (stereo not shown) [Example 392, 1-(2,4-difluoro-phenyl)-5-(4′-methanesulfonyl-3′-trifluoromethyl-biphenyl-4-yl)-3-[di-(trifluoromethyl)-hydroxy-methyl]-4,5-dihydro-1H-pyrazole], the Emax is on record as 26 fold and it took 0.147 µM to reach a half-maximal effect (EC50).

Turning to `OC(C1=NN(c2ccc(F)cc2F)C(c2ccc(-c3c(F)cc(-n4cnnn4)cc3F)cc2)C1)(C(F)(F)F)C(F)(F)F` (stereo not shown) [Example 393, 1-(2,4-difluoro-phenyl)-5-{[2′,6′-difluoro-4′-(tetrazol-1-yl)-biphenyl]-4-yl}-3-[di-(trifluoromethyl)-hydroxy-methyl]-4,5-dihydro-1H-pyrazole], the Emax was determined as 8 fold and the EC50 worked out at 0.79 µM.

On to `Cc1cc(-n2cnnn2)ncc1-c1ccc(C2CC(C(O)(C(F)(F)F)C(F)(F)F)=NN2c2ccc(F)cc2F)cc1` (stereo not shown) [Example 394, 1-(2,4-difluoro-phenyl)-5-{4-[4-methyl-6-(tetrazol-1-yl)-pyridin-3-yl]-phenyl}-3-[di-(trifluoromethyl)-hydroxy-methyl]-4,5-dihydro-1H-pyrazole], for which the Emax is given as 50 fold and the EC50 was determined as 0.083 µM.

The compound `CN(CCCS(=O)(=O)c1cccc(-c2ccc(C3CC(C(O)(C(F)(F)F)C(F)(F)F)=NN3c3ccc(F)cc3F)cc2)c1)C(=O)OC(C)(C)C` (stereo not shown) [Example 395, 5-{3′-[3-(N-BOC-N-methyl-amino)-propane-1-sulfonyl]-biphenyl-4-yl}-1-(2,4-difluoro-phenyl)-3-(di-(trifluoromethyl)-hydroxy-methyl)-4,5-dihydro-1H-pyrazole] registered an Emax of 83 fold and an EC50 of 0.0004 µM.

`CN(C)S(=O)(=O)c1ccc(-c2ccc(C3CC(C(O)(C(F)(F)F)C(F)(F)F)=NN3c3ccc(F)cc3F)cc2)cc1` (stereo not shown) [Example 396, 1-(2,4-difluoro-phenyl)-5-(4′-dimethylsulfamoyl-biphenyl-4-yl)-3-(di-(trifluoromethyl)-hydroxy-methyl)-4,5-dihydro-1H-pyrazole] returned an Emax of 83 fold and an EC50 of 0.145 µM.

For `CC(C)(C)OC(=O)N1CC=C(c2ccc(C3CC(C(O)(C(F)(F)F)C(F)(F)F)=NN3c3ccc(F)cc3F)cc2)CC1` (stereo not shown) [Example 398, 1-(2,4-difluoro-phenyl)-5-[4-(1-BOC-1,2,3,6-tetrahydropyridin-4-yl)-phenyl]-3-[di-(trifluoromethyl)-hydroxy-methyl]-4,5-dihydro-1H-pyrazole], the Emax was found to be 12 fold and the EC50 is 1.81 µM.

`CS(=O)(=O)N1CC=C(c2ccc(C3CC(C(O)(C(F)(F)F)C(F)(F)F)=NN3c3ccc(F)cc3F)cc2)CC1` (stereo not shown) [Example 400, 1-(2,4-difluoro-phenyl)-5-[4-(1-methanesulfonyl-1,2,3,6-tetrahydropyridin-4-yl)-phenyl]-3-[di-(trifluoromethyl)-hydroxy-methyl]-4,5-dihydro-1H-pyrazole] had an Emax of 38 fold and an EC50 of 0.379 µM.

In turn, `CN(C)S(=O)(=O)N1CC=C(c2ccc(C3CC(C(O)(C(F)(F)F)C(F)(F)F)=NN3c3ccc(F)cc3F)cc2)CC1` (stereo not shown) [Example 401, 1-(2,4-difluoro-phenyl)-5-[4-(1-dimethylsulfamoyl-1,2,3,6-tetrahydropyridin-4-yl)-phenyl]-3-[di-(trifluoromethyl)-hydroxy-methyl]-4,5-dihydro-1H-pyrazole] gave an Emax of 45 fold and an EC50 of 0.785 µM.

In turn, `CC(C)C(=O)N1CC=C(c2ccc(C3CC(C(O)(C(F)(F)F)C(F)(F)F)=NN3c3ccc(F)cc3F)cc2)CC1` (stereo not shown) [Example 402, 1-(2,4-difluoro-phenyl)-5-[4-(1-isobutyryl-1,2,3,6-tetrahydropyridin-4-yl)-phenyl]-3-[di-(trifluoromethyl)-hydroxy-methyl]-4,5-dihydro-1H-pyrazole] registered an Emax of 23 fold and an EC50 of 1.02 µM.

`CN(C)C(=O)N1CC=C(c2ccc(C3CC(C(O)(C(F)(F)F)C(F)(F)F)=NN3c3ccc(F)cc3F)cc2)CC1` (stereo not shown) [Example 403, 1-(2,4-difluoro-phenyl)-5-[4-(1-dimethylcarbamoyl-1,2,3,6-tetrahydropyridin-4-yl)-phenyl]-3-[di-(trifluoromethyl)-hydroxy-methyl]-4,5-dihydro-1H-pyrazole] showed an Emax of 22 fold and an EC50 of 1.17 µM.

The compound `CC(C)(C)OC(=O)N1CCN(c2ccc(C3CC(C(O)(C(F)(F)F)C(F)(F)F)=NN3c3ccc(F)cc3F)cc2)CC1` (stereo not shown) [Example 404, 1-(2,4-difluoro-phenyl)-5-[4-(4-BOC-piperazin-1-yl)-phenyl]-3-[di-(trifluoromethyl)-hydroxy-methyl]-4,5-dihydro-1H-pyrazole] returned an Emax of 15 fold and a concentration for a half-maximal effect (EC50) of 5.27 µM.

In the case of `CS(=O)(=O)N1CCN(c2ccc(C3CC(C(O)(C(F)(F)F)C(F)(F)F)=NN3c3ccc(F)cc3F)cc2)CC1` (stereo not shown) [Example 406, 1-(2,4-difluoro-phenyl)-5-[4-(4-methanesulfonyl-piperazin-1-yl)-phenyl]-3-[di-(trifluoromethyl)-hydroxy-methyl]-4,5-dihydro-1H-pyrazole], the Emax amounted to 53 fold and the EC50 is 0.966 µM.

Regarding `CN(C)S(=O)(=O)N1CCN(c2ccc(C3CC(C(O)(C(F)(F)F)C(F)(F)F)=NN3c3ccc(F)cc3F)cc2)CC1` (stereo not shown) [Example 407, 1-(2,4-difluoro-phenyl)-5-[4-(4-dimethylsulfamoyl-piperazin-1-yl)-phenyl]-3-[di-(trifluoromethyl)-hydroxy-methyl]-4,5-dihydro-1H-pyrazole], the Emax was 58 fold and the EC50 worked out at 0.731 µM.

`CS(=O)(=O)N1CCCN(c2ccc(C3CC(C(O)(C(F)(F)F)C(F)(F)F)=NN3c3ccc(F)cc3F)cc2)CC1` (stereo not shown) [Example 410, 1-(2,4-difluoro-phenyl)-5-[4-(4-methanesulfonyl-homopiperazin-1-yl)-phenyl]-3-[di-(trifluoromethyl)-hydroxy-methyl]-4,5-dihydro-1H-pyrazole] returned an Emax of 74 fold and an EC50 of 0.154 µM.

The record behind these values is patent publication US9376420B2 (YUHAN CORPORATION, priority 2012, dated 2016).
